Measurements as given in patent US7157570B2, “Human ribonucleotide reductase M2 subunit” (priority 2002, dated 2007).

How the values were obtained:
human RR = target: T1, human RR (Homo sapiens, UniProt P23921); assay: inhibition of human RR activity by C-terminal RRM2 peptide added to the enzyme in vitro; format: biochemical
T1 sequence (P23921 1-792): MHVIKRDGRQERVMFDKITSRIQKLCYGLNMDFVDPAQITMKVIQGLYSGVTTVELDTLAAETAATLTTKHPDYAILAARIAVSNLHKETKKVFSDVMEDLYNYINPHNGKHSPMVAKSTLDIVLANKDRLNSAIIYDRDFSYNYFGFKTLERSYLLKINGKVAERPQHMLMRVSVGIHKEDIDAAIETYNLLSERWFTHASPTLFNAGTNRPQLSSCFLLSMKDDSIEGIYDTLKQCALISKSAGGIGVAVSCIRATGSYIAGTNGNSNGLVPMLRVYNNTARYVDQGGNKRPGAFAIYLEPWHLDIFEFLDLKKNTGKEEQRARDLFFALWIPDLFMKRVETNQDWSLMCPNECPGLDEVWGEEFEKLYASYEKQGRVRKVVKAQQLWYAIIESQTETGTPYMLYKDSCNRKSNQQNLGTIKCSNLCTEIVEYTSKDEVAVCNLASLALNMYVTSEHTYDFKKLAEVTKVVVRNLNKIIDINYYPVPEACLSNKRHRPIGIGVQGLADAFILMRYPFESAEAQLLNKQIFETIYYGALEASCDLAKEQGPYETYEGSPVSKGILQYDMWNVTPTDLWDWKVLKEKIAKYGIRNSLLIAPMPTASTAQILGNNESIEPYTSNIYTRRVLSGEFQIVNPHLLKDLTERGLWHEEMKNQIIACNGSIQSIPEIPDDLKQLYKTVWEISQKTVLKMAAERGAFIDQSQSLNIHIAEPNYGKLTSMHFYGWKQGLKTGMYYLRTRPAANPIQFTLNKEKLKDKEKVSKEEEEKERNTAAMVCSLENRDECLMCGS
Source text: Other compounds that can be used to inhibit RRM1 and RRM2 or RRM1 and p53R2 interaction include a peptide or polypeptide containing an amino acid sequence at the C-terminus of RRM2. […] It was further observed that a truncated form of the M2 subunit, lacking these 7 amino acids at the C-terminus, fails to form a complex with the corresponding large subunit M1. […] Thus, methods of treating a cell proliferation-associated disorder using the peptide of SEQ ID NO:5 or its functional equivalents are within the scope of the invention. Peptides or polypeptides that are functionally equivalent to SEQ ID NO:5 can be either longer or shorter than SEQ ID NO:5, or contain substitute amino acids within SEQ ID NO:5, as long as they are capable of inhibiting the interaction between RRM1 and RRM2 or RRM1 and p53R2. Such peptides or polypeptides can be generated and used according to the methods described above or any other methods well known in the art.

KBHURs clone = conditions: cited from earlier work
[1] = test system: intracellular dNTP pools in KB cells; assay: dNTP pool assay; format: cell-based, human
Description: After treatment at designated time points with HU and/or Gem, cells were trypsinized, washed with PBS and viable cells were counted by Trypan Blue dye exclusion. Cells were transferred to 1.5 ml Eppendorf tubes and pelleted by brief centrifugation. Cell pellets were mixed with 100 μl 15% trichloroacetic acid and kept on ice for 10 minutes. It was then centrifuged for 5 minutes and the supernatant collected. dNTPs were extracted with two 50 μl aliquots of freon/trioctylamine (55%:45%). After each centrifugation, the supernatant was saved. 5 μl aliquots of each sample were used to check dATP, dCTP, dGTP, and dTTP concentrations. Each measurement was performed in duplicate (Zhou et al. (1998) Biochem Pharmaco 55, 1657–1665).
The reaction mixture contained 50 mM Tris-HCl (pH 7.5), 10 mM MgCl2, 5 mM DTT, 0.25 μM template/primer, 1.25 μM ^3H-dATP (for dCTP, dGTP, and dTTP assays) or ^3H-dTTP (for dATP assay), and 0.2 units of Sequenase (2.0) in a total volume of 50 μl. DNA synthesis was allowed to proceed for twenty minutes at room temperature and then the reaction was stopped and 40 μl of the reaction mixture was spotted onto Whatman DE81 ion exchange paper (2.4 cm diameter). The paper was dried, washed with 5% Na2HPO4 (3×10 min.), and rinsed once with distilled water and once with 95% ethanol. Samples were counted in a liquid scintillation counter and compared to standard samples prepared in the presence of 0.25, 0.5, and 1.0 pmol/μl of each dNTP.
To evaluate the effect of HU on dNTP pools in KB cells, each dNTP pool was measured as described in the Materials and Methods. dATP and dCTP were the most susceptible of the four dNTP pools to inhibition by HU. A decrease in these intracellular pools commenced after 1 hour of exposure to HU. The decline continued, with the dCTP pool reaching a nadir of approximately 15% of the control at 4 hours. The dATP pool reached a nadir after 8 hours. In a second phase, between 8 and 24 hours after exposure to HU, the dATP and dCTP pools slowly recovered to about 80% of their starting level. […] The decline and recovery of the dCTP and dATP pools paralleled the results of the colony-forming study. The initial drop in hRRM2 mRNA and protein, observed after 2–4 hours of HU exposure, could contribute to the rapid decline in dCTP and dATP pools seen after 4 hrs, while the subsequent overexpression of hRRM2 mRNA and protein would provide the needed activity to allow gradual recovery of the levels of dCTP and dATP.

DNA of KB cells = conditions: any HU treatment schedule (control)
RR activity in KB cells = target: T2, RR activity in KB cells (Homo sapiens, UniProt P31350); assay: in vivo RR activity assay (permeabilized cells); format: cell-based; conditions: 0.1 mM HU
T2 construct: endogenous in cells; host or cells: KB cells (human oropharyngeal carcinoma), permeabilized with lysolecithin
T2 sequence (P31350 1-389): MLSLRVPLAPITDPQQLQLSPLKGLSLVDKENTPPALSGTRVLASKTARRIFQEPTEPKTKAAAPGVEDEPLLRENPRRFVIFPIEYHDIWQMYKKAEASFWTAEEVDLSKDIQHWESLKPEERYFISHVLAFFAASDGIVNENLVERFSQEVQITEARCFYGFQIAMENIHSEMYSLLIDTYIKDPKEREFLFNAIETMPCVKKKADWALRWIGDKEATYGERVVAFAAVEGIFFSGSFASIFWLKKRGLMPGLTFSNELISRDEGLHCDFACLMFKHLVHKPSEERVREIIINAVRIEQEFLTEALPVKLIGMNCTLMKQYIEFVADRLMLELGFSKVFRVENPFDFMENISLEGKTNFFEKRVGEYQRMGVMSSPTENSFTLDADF
Description: […] cells were plated in duplicate in 60-mm dishes. Cells were treated with 0.1 mM HU and harvested at the indicated time points. To permeabilize the cells, they were washed twice in Solution A (150 mM sucrose, 80 mM KCL, 35 mM HEPES, pH 7.4, 5 mM potassium phosphate, pH 7.4, 5 mM MgCl2, 0.5 mM CaCl2), resuspended in 500 μl of cold Solution A containing 0.25 mg/ml lysolecithin, and incubated for 1 minute at 4° C. To measure the activity of ribonucleoside diphosphate reduction and DNA synthesis, 1×10^6 permeabilized cells were incubated at 37° C. for 10 minutes in 300 μl of 50 mM HEPES, pH 7.4, 10 mM MgCl2, 8 mM dithiothreitol, 0.06 mM FeCl3, 7.5 mM potassium phosphate, pH 7.4, 0.75 mM CaCl2, 10 mM phosphoenolpyruvate, 0.2 mM ^3H-rCDP, 0.2 mM rGDP, 0.2 mM rADP, 0.2 mM dTDP. Following incubation, 150 μl of the suspension mixture was taken out, resulting in two samples, and mixed with 30 μl of 60% perchloric acid/0.1% sodium pyrophosphate. After a 15-minute incubation on ice, 1 ml ddH2O was added to dilute the mixture and then it was centrifuged to precipitate any acid-insoluble material. Pellets were extracted with 0.1 ml 0.2 N NaOH and incubated at 37° C. for 30 minutes.
An in vivo RR activity assay was performed at the same time points as above described. […] The results are consistent with the observed levels of hRRM2 mRNA and protein expression.

[2] = test system: hRRM2 protein in KB cells; assay: Western blot of hRRM2 protein after exposure to HU; format: cell-based, human; conditions: 0.1 mM HU, 4-hour point
KB cells [3] = assay: cell cycle analysis by flow cytometry; format: cell-based, human; conditions: 4 to 8 hours of exposure to HU
Description: The cell cycle analysis was performed at flowcytometry core facility of City of Hope National Medical Center. The percent of cells in each phase of the cell cycle was analyzed by ModFit software. The protocol was summarized as below. Cells were trypsinized, washed twice with PBS, and resuspended in 1 ml PBS. 7 ml 0.5 M citric acid buffer (pH 2.35) was added and samples were stored overnight at room temperature in the dark. On the second day, the cells were placed at 4° C. in a dark environment. On the third day, cells were spun down, resuspended in citric acid buffer (pH 4.5) and adjusted to a concentration of 1×10^6 cells/ml. On the following day, the cells were spun down and resuspended in 1 ml BSA-H (0.1% BSA in PBS buffer). 150 μg RNase A (DNase free) was added to the solution and cells were incubated at 37° C. for 30 minutes. The cells were washed once with BSA-H and the pellet was resuspended in 1 ml 100 μg/ml propidium iodine (PI) and stored overnight at room temperature in the dark. On the following day, cells were analyzed by flowcytometry (Gao et al. (1998) Biochem Pharmaco 56, 105–112).
To further examine the time- and sequence-dependent interaction between HU and Gem, the effect of HU on cell cycle was studied. […] As Gem function requires DNA synthesis, the increased percent of cells in S-phase after 4 to 8 hours after exposure to HU is likely to augment its function.

KB cells [4] = assay: colony-forming assay; format: cell-based, human; conditions: drug alone (0.1 mM HU or 0.3 μM Gem)
hRRM2 mRNA in KB cells = assay: Northern blot of hRRM2 mRNA after exposure to HU; format: cell-based, human; conditions: 0.1 mM HU
[5] = target: T3, ribonucleotide reductase M1 subunit (RRM1) (human, UniProt P23921 1-792, limits assumed); assay: complex formation assay (method not described)
T3 construct: For the truncation experiment it says only 'the corresponding large subunit M1'; The construct is not described; also called large subunit M1
T3 sequence (looked up): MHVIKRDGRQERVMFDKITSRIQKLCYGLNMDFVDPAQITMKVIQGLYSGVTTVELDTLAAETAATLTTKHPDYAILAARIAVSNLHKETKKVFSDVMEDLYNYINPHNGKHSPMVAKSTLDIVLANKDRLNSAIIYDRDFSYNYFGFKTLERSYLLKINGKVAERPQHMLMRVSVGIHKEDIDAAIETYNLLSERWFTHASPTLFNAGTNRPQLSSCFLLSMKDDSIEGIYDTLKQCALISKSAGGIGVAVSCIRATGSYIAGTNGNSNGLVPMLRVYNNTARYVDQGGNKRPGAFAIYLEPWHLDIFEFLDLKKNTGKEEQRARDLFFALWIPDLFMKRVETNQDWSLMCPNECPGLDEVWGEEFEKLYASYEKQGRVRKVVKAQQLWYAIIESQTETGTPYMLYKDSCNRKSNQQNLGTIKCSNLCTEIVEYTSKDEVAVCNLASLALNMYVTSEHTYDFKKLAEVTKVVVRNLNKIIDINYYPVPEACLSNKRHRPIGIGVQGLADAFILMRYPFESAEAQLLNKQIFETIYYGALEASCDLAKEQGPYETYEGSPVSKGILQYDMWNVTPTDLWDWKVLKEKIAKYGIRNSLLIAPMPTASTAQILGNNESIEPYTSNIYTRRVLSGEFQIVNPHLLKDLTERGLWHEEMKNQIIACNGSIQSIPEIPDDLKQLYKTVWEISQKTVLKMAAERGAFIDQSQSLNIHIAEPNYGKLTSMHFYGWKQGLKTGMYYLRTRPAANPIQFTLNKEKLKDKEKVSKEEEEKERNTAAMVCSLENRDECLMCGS

FTLDADF (synthetically generated peptide)
suppression of human RR activity (human RR; added to the enzyme in vitro at ratio 10:1 (peptide:enzyme)): dramatically suppress | inhibition of RR activity compared with RR inhibitors hydroxyurea and triapine (human RR; in vitro): superior

NC(=O)NO [HU, hydroxyurea]
increase in resistance to HU over KBwt cells (KBHURs clone): 15 fold | dTTP and dGTP pools over time ([1]; HU exposure): did not vary significantly | time at which dATP pool reached a nadir ([1]; HU exposure): 8 h | dCTP pool nadir, % of the control ([1]; HU, 4 hours): approximately 15% | dATP and dCTP pools, % of starting level after recovery ([1]; between 8 and 24 hours after exposure to HU): about 80% | incorporation of 3H-labeled CDP into DNA (DNA of KB cells): did not vary significantly | RR activity (RR activity in KB cells; 8-hour point): recovered to the level of the control | RR activity, % of the control (RR activity in KB cells; 4 hours): 60% | hRRM2 protein expression [2]: decrease | percentage of cells in G1 (KB cells [3]): remained stable | percentage of cells in G2/M (KB cells [3]): declined | percentage of cells in S-phase (KB cells [3]): approximately doubled | colony formation, % of untreated controls (KB cells [4]): approximately 50% | decrease of hRRM2 mRNA relative to untreated sample (hRRM2 mRNA in KB cells; 2 hours): 20% | hRRM2 mRNA, % of control levels (hRRM2 mRNA in KB cells; 4 hours): 60%

B1: truncated form of the M2 subunit, lacking the 7 amino acids at the C-terminus (enzyme, human, UniProt P31350 1-382, looked up)
chain: MLSLRVPLAPITDPQQLQLSPLKGLSLVDKENTPPALSGTRVLASKTARRIFQEPTEPKTKAAAPGVEDEPLLRENPRRFVIFPIEYHDIWQMYKKAEASFWTAEEVDLSKDIQHWESLKPEERYFISHVLAFFAASDGIVNENLVERFSQEVQITEARCFYGFQIAMENIHSEMYSLLIDTYIKDPKEREFLFNAIETMPCVKKKADWALRWIGDKEATYGERVVAFAAVEGIFFSGSFASIFWLKKRGLMPGLTFSNELISRDEGLHCDFACLMFKHLVHKPSEERVREIIINAVRIEQEFLTEALPVKLIGMNCTLMKQYIEFVADRLMLELGFSKVFRVENPFDFMENISLEGKTNFFEKRVGEYQRMGVMSSPTENS
notes: domain: truncated form lacking the 7 amino acids at the C-terminus; To build it, delete the last 7 residues (FTLDADF) of RRM2; also called truncated M2
binding result [5]: no binding
